US9765092B2, “Tricyclic piperidine compounds” (ACTELION PHARMACEUTICALS LTD, priority 2013, dated 2017)

Biological target: human TPH1 (Homo sapiens (Human), UniProt P17752)
Assay: Biochemical in vitro assay using fluorescence readout (TPH1 inhibition)
Details: full length human TPH1, 40 μM L-tryptophan, 15° C., 60 minutes, fluorescence at 540 nm; mean if determined several times

human TPH1, sequence (P17752 whole entry): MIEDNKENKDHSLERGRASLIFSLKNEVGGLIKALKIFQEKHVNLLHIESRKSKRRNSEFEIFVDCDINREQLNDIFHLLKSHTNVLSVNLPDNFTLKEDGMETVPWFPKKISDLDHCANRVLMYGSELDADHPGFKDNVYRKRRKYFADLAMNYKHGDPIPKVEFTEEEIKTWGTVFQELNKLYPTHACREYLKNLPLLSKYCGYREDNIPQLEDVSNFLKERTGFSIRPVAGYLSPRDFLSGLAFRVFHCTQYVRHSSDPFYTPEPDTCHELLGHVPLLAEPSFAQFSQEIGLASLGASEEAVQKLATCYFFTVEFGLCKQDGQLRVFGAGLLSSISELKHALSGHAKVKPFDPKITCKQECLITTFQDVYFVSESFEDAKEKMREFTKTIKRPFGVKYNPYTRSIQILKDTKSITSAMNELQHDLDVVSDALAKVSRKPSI

Row | Compound | IC50
1 | Cc1nn2c3c(nc2s1)CCN(C(=O)COc1ccc(NS(C)(=O)=O)nc1Cl)C3c1cnc(N(C)C)s1 (stereo not shown) [Example 1.22.6, N-(6-Chloro-5-(2-(5-(2-(dimethylamino)thiazol-5-yl)-2-methyl-7,8-dihydro-[1,3,4]thia-diazolo[2′,3′:2,3]imidazo[4,5-c]pyridin-6(5H)-yl)-2-oxoethoxy)pyridin-2-yl)methane-sulfonamide] | 39 nM
2 | Cc1nn2c3c(nc2s1)CCN(C(=O)COc1ccc(N2CC(F)(F)C2)nc1Cl)C3c1ncc(C(=O)N(C)C)s1 (stereo not shown) [Example 1.37.2, 2-(6-(2-((2-Chloro-6-(3,3-difluoroazetidin-1-yl)pyridin-3-yl)oxy)acetyl)-2-methyl-5,6,7,8-tetrahydro-[1,3,4]thiadiazolo[2′,3′:2,3]imidazo[4,5-c]pyridin-5-yl)-N,N-dimethylthiazole-5-carboxamide] | 51 nM

Same assay, conditions: human TPH1, fluorescence readout

Row | Compound | IC50
3 | O=C(COc1ccc(CN2CCOCC2)nc1Cl)N1CCc2nc3sccn3c2C1c1ccc(Cl)cc1F (stereo not shown) [Example 6.4.5, 1-(5-(4-chloro-2-fluorophenyl)-7,8-dihydrothiazolo-[2′,3′:2,3]imidazo[4,5-c]pyridin-6(5H)-yl)-2-((2-chloro-6-(morpholinomethyl)pyridin-3-yl)oxy)ethanone] | 7 nM
4 | Cc1nn2c3c(nc2s1)CCN(C(=O)COc1ccc(S(N)(=O)=O)cc1C)C3c1sccc1F (stereo not shown) [Example 1.23.2, 4-(2-(5-(3-fluorothiophen-2-yl)-2-methyl-7,8-dihydro-[1,3,4]thiadiazolo[2′,3′:2,3]imidazo[4,5-c]pyridin-6(5H)-yl)-2-oxoethoxy)-3-methylbenzenesulfonamide] | 89 nM
5 | Cc1cc(Cl)ccc1OCC(=O)N1CCc2nc3sccn3c2C1c1c(C)nn(C)c1C (stereo not shown) [Example 6.15.3, 2-(4-chloro-2-methylphenoxy)-1-(5-(1,3,5-trimethyl-1H-pyrazol-4-yl)-7,8-dihydrothiazolo[2′,3′:2,3]imidazo[4,5-c]pyridin-6(5H)-yl)ethanone] | 20 nM
6 | O=C(COc1ccc(C(F)(F)F)cc1Cl)N1CCc2nc3sccn3c2C1c1cnn(-c2ccccc2)c1 (stereo not shown) [Example 6.13.8, 2-(2-chloro-4-(trifluoromethyl)phenoxy)-1-(5-(1-phenyl-1H-pyrazol-4-yl)-7,8-dihydrothiazolo[2′,3′:2,3]-imidazo[4,5-c]pyridin-6(5H)-yl)ethanone] | 80 nM
7 | CCNC(=O)Nc1nc(C2c3c(nc4sc(C)nn34)CCN2C(=O)COc2ccc(N3CCOCC3)nc2Cl)cs1 (stereo not shown) [Example 1.47.1, 1-(4-(6-(2-((2-chloro-6-morpholinopyridin-3-yl)oxy)acetyl)-2-methyl-5,6,7,8-tetrahydro-[1,3,4]thiadiazolo[2′,3′:2,3]imidazo[4,5-c]pyridin-5-yl)thiazol-2-yl)-3-ethylurea] | 18 nM
8 | Cc1nn2c3c(nc2s1)CCN(C(=O)COc1ccc(N2CCOCC2)nc1Cl)C3c1cncs1 (stereo not shown) [Example 1.39.3, 2-((2-chloro-6-morpholinopyridin-3-yl)oxy)-1-(2-methyl-5-(thiazol-5-yl)-7,8-dihydro-[1,3,4]thiadiazolo[2′,3′:2,3]imidazo[4,5-c]pyridin-6(5H)-yl)ethanone] | 5 nM
9 | CCc1nc(C)ccc1OCC(=O)N1CCc2nc3sc(C)nn3c2C1c1cnc(C2CC2)nc1C (stereo not shown) [Example 1.10.3, 1-(5-(2-cyclopropyl-4-methylpyrimidin-5-yl)-2-methyl-7,8-dihydro-[1,3,4]thiadiazolo[2′,3′:2,3]imidazo[4,5-c]pyridin-6(5H)-yl)-2-((2-ethyl-6-methylpyridin-3-yl)oxy)ethanone] | 38 nM
10 | CCOC(=O)c1ncc(C2c3c(nc4sc(C)nn34)CCN2C(=O)COc2ccc(C(F)(F)F)cc2Cl)s1 (stereo not shown) [Example 1.30.2, Ethyl 5-(6-(2-(2-chloro-4-(trifluoromethyl)phenoxy)acetyl)-2-methyl-5,6,7,8-tetrahydro-[1,3,4]thiadiazolo [2′,3′:2,3]imidazo[4,5-c]pyridin-5-yl)thiazole-2-carboxylate] | 442 nM
11 | CC(=O)Nc1ccc(C2c3c(nc4sc(C)nn34)CCN2C(=O)COc2ccc(N3CCOCC3)nc2Cl)s1 (stereo not shown) [Example 1.13.1, N-(5-(6-(2-((2-chloro-6-morpholinopyridin-3-yl)oxy)acetyl)-2-methyl-5,6,7,8-tetrahydro-[1,3,4]thiadiazolo [2′,3′:2,3]imidazo[4,5-c]pyridin-5-yl)thiophen-2-yl)acetamide] | 54 nM
12 | O=C(COc1ccccc1C(F)(F)F)N1CCc2nc3sccn3c2C1c1cccnc1F (stereo not shown) [Example 6.2.2, 1-(5-(2-fluoropyridin-3-yl)-7,8-dihydrothiazolo[2′,3′:2,3]-imidazo[4,5-c]pyridin-6(5H)-yl)-2-(2-(trifluoromethyl)-phenoxy)ethanone] | 81 nM
13 | Cc1ccc(OCC(=O)N2CCc3nc4sccn4c3C2c2cnn(-c3ccccc3)c2)cc1 (stereo not shown) [Example 6.13.3, 1-(5-(1-phenyl-1H-pyrazol-4-yl)-7,8-dihydrothiazolo-[2′,3′:2,3]imidazo[4,5-c]pyridin-6(5H)-yl)-2-(p-tolyl-oxy)ethanone] | 53 nM
14 | Cc1nn2c3c(nc2s1)CCN(C(=O)COc1ccc(N2CCOCC2)nc1F)C3c1ncc(C2CC2)cc1F (stereo not shown) [Example 1.14.5, 1-(5-(5-cyclopropyl-3-fluoropyridin-2-yl)-2-methyl-7,8-dihydro-[1,3,4]thiadiazolo[2′,3′:2,3]imidazo[4,5-c]pyridine-6(5H)-yl)-2-((2-fluoro-6-morpholinopyridin-3-yl)oxy)ethanone] | 9 nM
15 | Cc1nn2c3c(nc2s1)CCN(C(=O)COc1ccc(N2CCOCC2)nc1Cl)C3c1coc(-c2ccccc2)n1 (stereo not shown) [Example 1.12.1, 2-((2-chloro-6-morpholinopyridin-3-yl)oxy)-1-(2-methyl-5-(2-phenyloxazol-4-yl)-7,8-dihydro-[1,3,4]thiadiazolo [2′,3′:2,3]imidazo[4,5-c]pyridin-6(5H)-yl)ethanone] | 14 nM
16 | CCc1cc(Cl)ccc1OCC(=O)N1CCc2nc3sccn3c2C1c1c(C)nn(C)c1C (stereo not shown) [Example 6.15.4, 2-(4-chloro-2-ethylphenoxy)-1-(5-(1,3,5-trimethyl-1H-pyrazol-4-yl)-7,8-dihydrothiazolo[2′,3′:2,3]imidazo[4,5-c]pyridin-6(5H)-yl)ethanone] | 102 nM
17 | Cc1nn2c3c(nc2s1)CCN(C(=O)COc1ccc(C(=O)NC2CC2)nc1C1CC1)C3c1ccc(Cl)cc1F (stereo not shown) [Example 1.4.55, 5-(2-(5-(4-chloro-2-fluorophenyl)-2-methyl-7,8-dihydro-[1,3,4]thiadiazolo[2′,3′:2,3]imidazo[4,5-c]pyridin-6(5H)-yl)-2-oxoethoxy)-N,6-dicyclopropylpicolinamide] | 9 nM
18 | Cc1nn2c3c(nc2s1)CCN(C(=O)COc1ccc(N(C)C)nc1Cl)C3c1ccc(Cl)nc1F (stereo not shown) [Example 1.16.1, 1-(5-(6-chloro-2-fluoropyridin-3-yl)-2-methyl-7,8-dihydro-[1,3,4]thiadiazolo[2′,3′:2,3]imidazo[4,5-c]pyridin-6(5H)-yl)-2-((2-chloro-6-(dimethylamino)pyridin-3-yl)oxy)ethanone] | 5 nM
19 | Cc1nc(C)c(C2c3c(nc4sc(C)nn34)CCN2C(=O)COc2ccc(N3CCOCC3)nc2Cl)o1 (stereo not shown) [Example 1.66.1, 2-((2-chloro-6-morpholinopyridin-3-yl)oxy)-1-(5-(2,4-dimethyloxazol-5-yl)-2-methyl-7,8-dihydro-[1,3,4]thiadiazolo [2′,3′:2,3]imidazo[4,5-c]pyridin-6(5H)-yl)ethanone] | 13 nM
